One test addresses PDE2A (Homo sapiens (Human), UniProt O00408). As to the kind of experiment: IMAP TR-FRET PDE2A enzymatic assay. It is filed as biochemical. The following applies: FLAG-tagged PDE2A1 (amino acids 2-941), 200 nM FAM-cAMP substrate, 11-point half-log dose-response. From the text: An IMAP TR-FRET-based phosphodiesterase assay was developed using the PDE2A isoform. IMAP technology is based on high-affinity binding of phosphate by immobilized metal (MIII) coordination complexes on nanoparticles. The IMAP “binding reagent” recognizes phosphate groups on AMP or GMP generated from cAMP or cGMP in a PDE reaction. Cyclic nucleotides that carry a phosphodiester bond and not a free phosphate are not recognized by the binding reagent. The time resolved fluorescence resonance energy transfer (TR-FRET) is afforded by a Terbium (Tb)-Donor pre-bound to the nanoparticles. FRET occurs when the fluorescent-labeled AMP or GMP product of a PDE reaction binds and comes into close proximity to the Tb-Donor complex. Due to the long lifetime of Tb fluorescence, detection can be run in time-resolved mode to reduce or eliminate interference from auto-fluorescent compounds.
The IMAP TR-FRET PDE2A assay was performed in 1536-well white plates. A total of 250 pg per well of FLAG-tagged PDE2A 1 (amino acids 2-941) was dispensed in 2.5 μL IMAP assay buffer consisting of 10 mM Tris pH 7.2, 10 mM MgCl2, 1 mM DTT, and 0.1% fatty acid free BSA. 30 nL of compound was then added from 1 mM stocks in DMSO using a Kalypsys Pintool. Plates were incubated for 5 min at room temperature before dispensing 1.5 μL of 533 nM FAM-cAMP substrate for a final concentration of 200 nM. Following a brief centrifugation, plates were incubated for 30 min at room temperature. The assay was terminated by adding 5 μL IMAP binding reagent Tb complex to each well which was prepared according to manufacturer's recommendations (Molecular Devices). Plates were incubated an additional 120 minutes at room temperature and read on a Viewlux plate reader. All compounds were solvated at a concentration of 10 mM in DMSO and tested in 11-point half-log dose-response. Curve fitting and IC50 values were determined using a standard four parameter fit.
Sequence of PDE2A (O00408 2-941): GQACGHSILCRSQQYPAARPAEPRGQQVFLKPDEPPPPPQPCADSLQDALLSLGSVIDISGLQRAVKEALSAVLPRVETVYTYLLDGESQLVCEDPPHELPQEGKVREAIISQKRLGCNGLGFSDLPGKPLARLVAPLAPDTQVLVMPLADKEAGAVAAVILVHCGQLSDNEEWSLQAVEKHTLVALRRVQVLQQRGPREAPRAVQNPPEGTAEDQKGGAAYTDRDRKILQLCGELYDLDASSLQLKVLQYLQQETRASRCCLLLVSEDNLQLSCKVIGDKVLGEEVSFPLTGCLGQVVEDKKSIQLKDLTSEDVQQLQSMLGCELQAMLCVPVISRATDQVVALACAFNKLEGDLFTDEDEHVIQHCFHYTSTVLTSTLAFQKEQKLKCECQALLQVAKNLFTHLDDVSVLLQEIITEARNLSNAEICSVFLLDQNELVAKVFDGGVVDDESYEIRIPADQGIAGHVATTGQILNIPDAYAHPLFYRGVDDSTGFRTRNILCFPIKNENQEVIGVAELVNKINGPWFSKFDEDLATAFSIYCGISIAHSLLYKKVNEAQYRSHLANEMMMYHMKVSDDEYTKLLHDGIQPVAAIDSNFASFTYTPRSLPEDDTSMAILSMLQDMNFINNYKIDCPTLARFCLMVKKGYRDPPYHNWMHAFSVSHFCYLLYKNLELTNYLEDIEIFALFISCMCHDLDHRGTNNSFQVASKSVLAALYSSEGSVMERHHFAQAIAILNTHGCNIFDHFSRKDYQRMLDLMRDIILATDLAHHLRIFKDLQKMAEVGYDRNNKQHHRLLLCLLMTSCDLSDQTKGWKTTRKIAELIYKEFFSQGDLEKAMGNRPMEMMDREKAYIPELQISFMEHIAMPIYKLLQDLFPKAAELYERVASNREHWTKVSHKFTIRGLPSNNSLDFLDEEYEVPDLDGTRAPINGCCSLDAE
Consider `CC[C@H](c1ccc(C(F)(F)F)nc1)n1nc(C2CC2)c2c(=O)[nH]c(Cc3ccc(OC)cn3)nc21` [Example 18, 3-cyclopropyl-6-[(5-methoxypyridin-2-yl)methyl]-1-[(1R)-1-[6-(trifluoromethyl)pyridin-3-yl]propyl]-1H,4H,5H-pyrazolo[3,4-d]pyrimidin-4-one], for which the “PDE2 (pIC50)” value was below 5. In the case of `Cc1nc2c(c(C3CC3)nn2C(C)c2ccc(C(F)(F)F)cc2)c(=O)[nH]1` (stereo not shown) [Example 10, 3-cyclopropyl-6-methyl-1-{1-[4-(trifluoromethyl)phenyl]ethyl}-1H,4H,5H-pyrazolo[3,4-d]pyrimidin-4-one], the “PDE2 (pIC50)” value was above 7. On the same count and under the same terms, the figure for `COc1ccc(Cc2nc3c(c(C4CC4)nn3C(C)c3ccc(C(F)(F)F)nc3)c(=O)[nH]2)nc1` (stereo not shown) [Example 2, 3-cyclopropyl-6-[(5-methoxypyridin-2-yl)methyl]-1-{1-[6-(trifluoromethyl)pyridin-3-yl]ethyl}-1H,4H,5H-pyrazolo[3,4-d]pyrimidin-4-one] is above 7; for `CC[C@@H](c1ccc(C(F)(F)F)nc1)n1nc(C2CC2)c2c(=O)[nH]c(Cc3ccc(F)cn3)nc21` [Example 21, 3-cyclopropyl-6-[(5-fluoropyridin-2-yl)methyl]-1-[(1S)-1-[6-(trifluoromethyl)pyridin-3-yl]propyl]-1H,4H,5H-pyrazolo[3,4-d]pyrimidin-4-one] it is above 7; for `CC[C@@H](c1ccc(C(F)(F)F)nc1)n1nc(C2CC2)c2c(=O)[nH]c(Cc3ccc(OC)cn3)nc21` [Example 17, 3-cyclopropyl-6-[(5-methoxypyridin-2-yl)methyl]-1-[(1S)-1-[6-(trifluoromethyl)pyridin-3-yl]propyl]-1H,4H,5H-pyrazolo[3,4-d]pyrimidin-4-one] it is above 7.

On to `CCC(c1ccc(C(F)(F)F)cn1)n1nc(C2CC2)c2c(=O)[nH]c(C)nc21` (stereo not shown) [Example 9, 3-cyclopropyl-6-methyl-1-{1-[5-(trifluoromethyl)pyridin-2-yl]propyl}-1H,4H,5H-pyrazolo[3,4-d]pyrimidin-4-one], for which the “PDE2 (pIC50)” value is listed as above 7. For `CCC(c1ccc(C(F)(F)F)nc1)n1nc(C2CC2)c2c(=O)[nH]c(Cc3ccc(OC)cn3)nc21` (stereo not shown) [Example 1, 3-cyclopropyl-6-[(5-methoxypyridin-2-yl)methyl]-1-{1-[6-(trifluoromethyl)pyridin-3-yl]propyl}-1H,4H,5H-pyrazolo[3,4-d]pyrimidin-4-one], the “PDE2 (pIC50)” value is listed as above 7.

Consider `Cc1nc2c(c(C3CC3)nn2C(C)c2ccc(C(F)(F)F)cn2)c(=O)[nH]1` (stereo not shown) [Example 11, 3-cyclopropyl-6-methyl-1-{1-[5-(trifluoromethyl)pyridin-2-yl]ethyl}-1H,4H,5H-pyrazolo[3,4-d]pyrimidin-4-one], for which the “PDE2 (pIC50)” value was above 7. Consider `CC[C@@H](c1ccc(C(F)(F)F)nc1)n1nc(C2CC2)c2c(=O)[nH]c(C)nc21` [Example 19, 3-cyclopropyl-6-methyl-1-[(1S)-1-[6-(trifluoromethyl)pyridin-3-yl]propyl]-1H,4H,5H-pyrazolo[3,4-d]pyrimidin-4-one], for which the “PDE2 (pIC50)” value was above 7.

For `C[C@H](c1ccc(C(F)(F)F)nc1)n1nc(C2CC2)c2c(=O)[nH]c(Cc3ccc(F)cn3)nc21` [Example 16, 3-cyclopropyl-6-[(5-fluoropyridin-2-yl)methyl]-1-[(1R)-1-[6-(trifluoromethyl)pyridin-3-yl]ethyl]-1H,4H,5H-pyrazolo[3,4-d]pyrimidin-4-one], the “PDE2 (pIC50)” value was below 5.

Turning to `CCC(c1ccc(C(F)(F)F)nc1)n1nc(C2CC2)c2c(=O)[nH]c(Cc3ccc(F)cn3)nc21` (stereo not shown) [Example 8, 3-cyclopropyl-6-[(5-fluoropyridin-2-yl)methyl]-1-{1-[6-(trifluoromethyl)pyridin-3-yl]propyl}-1H,4H,5H-pyrazolo[3,4-d]pyrimidin-4-one], the “PDE2 (pIC50)” value is above 7. Turning to `CC[C@@H](c1ccc(C(F)(F)F)cn1)n1nc(C2CC2)c2c(=O)[nH]c(C)nc21` [Example 23, 3-cyclopropyl-6-methyl-1-[(1S)-1-[5-(trifluoromethyl)pyridin-2-yl]propyl]-1H,4H,5H-pyrazolo[3,4-d]pyrimidin-4-one], the “PDE2 (pIC50)” value is given as above 7.

Regarding `COc1ccc(Cc2nc3c(c(C4CC4)nn3[C@@H](C)c3ccc(C(F)(F)F)nc3)c(=O)[nH]2)nc1` [Example 5, 3-cyclopropyl-6-[(5-methoxypyridin-2-yl)methyl]-1-[(1S)-1-[6-(trifluoromethyl)pyridin-3-yl]ethyl]-1H,4H,5H-pyrazolo[3,4-d]pyrimidin-4-one], the “PDE2 (pIC50)” value was above 7. On to `Cc1nc2c(c(C3CC3)nn2[C@@H](C)c2ccc(C(F)(F)F)cn2)c(=O)[nH]1` [Example 25, 3-cyclopropyl-6-methyl-1-[(1S)-1-[5-(trifluoromethyl)pyridin-2-yl]ethyl]-1H,4H,5H-pyrazolo[3,4-d]pyrimidin-4-one], for which the “PDE2 (pIC50)” value was above 7. On the same count and under the same terms, the same measure for `Cc1nc2c(c(C3CC3)nn2C(C)c2ccc(C(F)(F)F)nc2)c(=O)[nH]1` (stereo not shown) [Example 12, 3-cyclopropyl-6-methyl-1-{1-[6-(trifluoromethyl)pyridin-3-yl]ethyl}-1H,4H,5H-pyrazolo[3,4-d]pyrimidin-4-one]: above 7.

Staying with this test, now noted: FLAG-tagged PDE2A1 (amino acids 2-941), 200 nM FAM-cAMP substrate, 11-point half-log dose-response; read-out: PDE2 (pIC50) (converted).
For the molecule `CCC(c1ccc(C(F)(F)F)nc1)n1nc(C2CC2)c2c(=O)[nH]c(C)nc21` (stereo not shown) [Example 3, 3-cyclopropyl-6-methyl-1-{1-[6-(trifluoromethyl)pyridin-3-yl]propyl}-1H,4H,5H-pyrazolo[3,4-d]pyrimidin-4-one], the IC50 was 0.1 to 1 µM. `CC(c1ccc(C(F)(F)F)nc1)n1nc(C2CC2)c2c(=O)[nH]c(Cc3ccc(F)cn3)nc21` (stereo not shown) [Example 7, 3-cyclopropyl-6-[(5-fluoropyridin-2-yl)methyl]-1-{1-[6-(trifluoromethyl)pyridin-3-yl]ethyl}-1H,4H,5H-pyrazolo[3,4-d]pyrimidin-4-one]: the IC50 was 0.1 to 1 µM. On the same count and under the same terms, the figure for `CC[C@H](c1ccc(C(F)(F)F)nc1)n1nc(C2CC2)c2c(=O)[nH]c(Cc3ccc(F)cn3)nc21` [Example 22, 3-cyclopropyl-6-[(5-fluoropyridin-2-yl)methyl]-1-[(1R)-1-[6-(trifluoromethyl)pyridin-3-yl]propyl]-1H,4H,5H-pyrazolo[3,4-d]pyrimidin-4-one] is 1 to 10 µM; for `CCC(c1ccc(C(F)(F)F)nc1)n1nc(C2CCC2)c2c(=O)[nH]c(C)nc21` (stereo not shown) [Example 4, 3-cyclobutyl-6-methyl-1-{1-[6-(trifluoromethyl)pyridin-3-yl]propyl}-1H,4H,5H-pyrazolo[3,4-d]pyrimidin-4-one] it is above 10 µM. The same measure, in the same setting: the same measure for `CC[C@H](c1ccc(C(F)(F)F)nc1)n1nc(C2CC2)c2c(=O)[nH]c(C)nc21` [Example 20, 3-cyclopropyl-6-methyl-1-[(1R)-1-[6-(trifluoromethyl)pyridin-3-yl]propyl]-1H,4H,5H-pyrazolo[3,4-d]pyrimidin-4-one]: 1 to 10 µM; for `Cc1nc2c(c(C3CC3)nn2[C@H](C)c2ccc(C(F)(F)F)cn2)c(=O)[nH]1` [Example 26, 3-cyclopropyl-6-methyl-1-[(1R)-1-[5-(trifluoromethyl)pyridin-2-yl]ethyl]-1H,4H,5H-pyrazolo[3,4-d]pyrimidin-4-one]: 1 to 10 µM; for `COc1ccc(Cc2nc3c(c(C4CC4)nn3[C@H](C)c3ccc(C(F)(F)F)nc3)c(=O)[nH]2)nc1` [Example 6, 3-cyclopropyl-6-[(5-methoxypyridin-2-yl)methyl]-1-[(1R)-1-[6-(trifluoromethyl)pyridin-3-yl]ethyl]-1H,4H,5H-pyrazolo[3,4-d]pyrimidin-4-one]: 0.1 to 1 µM. As to `Cc1nc2c(c(C3CC3)nn2[C@H](C)c2ccc(C(F)(F)F)nc2)c(=O)[nH]1` [Example 14, 3-cyclopropyl-6-methyl-1-[(1R)-1-[6-(trifluoromethyl)pyridin-3-yl]ethyl]-1H,4H,5H-pyrazolo[3,4-d]pyrimidin-4-one], the IC50 is 1 to 10 µM. Take `CC[C@H](c1ccc(C(F)(F)F)cn1)n1nc(C2CC2)c2c(=O)[nH]c(C)nc21` [Example 24, 3-cyclopropyl-6-methyl-1-[(1R)-1-[5-(trifluoromethyl)pyridin-2-yl]propyl]-1H,4H,5H-pyrazolo[3,4-d]pyrimidin-4-one]: the IC50 is 1 to 10 µM. The same measure, in the same setting: the same measure for `C[C@@H](c1ccc(C(F)(F)F)nc1)n1nc(C2CC2)c2c(=O)[nH]c(Cc3ccc(F)cn3)nc21` [Example 15, 3-cyclopropyl-6-[(5-fluoropyridin-2-yl)methyl]-1-[(1S)-1-[6-(trifluoromethyl)pyridin-3-yl]ethyl]-1H,4H,5H-pyrazolo[3,4-d]pyrimidin-4-one]: 0.1 to 1 µM.

Values taken from patent US10981916B2, “Substituted pyrazolopyrimidinone compounds as PDE2 inhibitors” (DART NEUROSCIENCE, LLC, priority 2016, dated 2021).
